Legend:
Type in all cases: in vivo
Settings in all cases: 250 g/h, evaluated after 13 days
Avena fatua (AVEFA) [1] = experiment: Pre-emergence herbicidal glasshouse test, percentage damage
Procedure: (§1) Seeds of a variety of test species are sown in standard soil in pots (Lolium perenne (LOLPE), Setaria faberi (SETFA), Alopecurus myosuroides (ALOMY), Echinochloa crus-galli (ECHCG), Avena fatua (AVEFA)). After cultivation for one day (pre-emergence) or after 8 days cultivation (post-emergence) under controlled conditions in a glasshouse (at 24/16° C., day/night; 14 hours light; 65% humidity), the plants are sprayed with an aqueous spray solution derived from the formulation of the technical active ingredient in acetone/water (50:50) solution containing 0.5% Tween 20 (polyoxyethelyene sorbitan monolaurate, CAS RN 9005-64-5). Compounds are applied at […]. The test plants are then grown in a glasshouse under controlled conditions in a glasshouse (at 24/16° C., day/night; 14 hours light; 65% humidity) and watered twice daily. After 13 days for pre and post-emergence, the test is evaluated for the percentage damage caused to the plant. The biological activities are shown in the following table on a five point scale (5=80-100%; 4=60-79%; 3=40-59%; 2=20-39%; 1=0-19%).

[2] = tested on: Echinochloa crus-galli (ECHCG); experiment: as above
Procedure: as §1

Lolium perenne (LOLPE) [3] = experiment: as above
Procedure: as §1

Setaria faberi (SETFA) [4] = experiment: as above
Procedure: as §1

Setaria faberi (SETFA) [5] = experiment: Post-emergence herbicidal glasshouse test, percentage damage
Procedure: as §1
Using procedures outlines above, wheat and barley crop plants and a weed species (SETFA) are treated post-emergence with compound A11 of the present invention or comparator compound C1 (Compound A-38 from WO2014/096289) at the application rates indicated. The compounds were also applied to wheat in conjunction with the safener compound cloquintocet-mexyl (CQC) at 50 g/ha.

Avena fatua (AVEFA) [6] = experiment: as above
Procedure: as §1

[7] = tested on: Echinochloa crus-galli (ECHCG); experiment: as above
Procedure: as §1

Lolium perenne (LOLPE) [8] = experiment: as above
Procedure: as §1

Row | Structure (SMILES) | AVEFA PRE percentage damage (five point scale) (Avena fatua (AVEFA) [1]) | ECHCG PRE percentage damage (five point scale) [2] | LOLPE PRE percentage damage (five point scale) (Lolium perenne (LOLPE) [3]) | SETFA PRE percentage damage (five point scale) (Setaria faberi (SETFA) [4]) | SETFA POST percentage damage (five point scale) (Setaria faberi (SETFA) [5]) | AVEFA POST percentage damage (five point scale) (Avena fatua (AVEFA) [6]) | ECHCG POST percentage damage (five point scale) [7] | LOLPE POST percentage damage (five point scale) (Lolium perenne (LOLPE) [8])
1 | CC#Cc1cc(C)c(C2C(=O)CC3(CCN(C(=O)c4ncccc4C#N)CC3)CC2=O)c(C)c1 [Compound A114] | 4 (4=60-79%) | 5 (5=80-100%) | 5 (5=80-100%) | 5 (5=80-100%) | 5 (5=80-100%) | 5 (5=80-100%) | 5 (5=80-100%) | 5 (5=80-100%)
2 | CC#Cc1cc(C)c(C2C(=O)CC3(CCN(C(=O)C4CCCOC4)CC3)CC2=O)c(C)c1 (centres unmarked) [Compound A128] | 3 (3=40-59%) | 5 (5=80-100%) | 5 (5=80-100%) | 5 (5=80-100%) | 4 (4=60-79%) | 5 (5=80-100%) | 5 (5=80-100%) | 5 (5=80-100%)
3 | CC#Cc1cc(C)c(C2C(=O)CC3(CCN(C(=O)CC4CCOCC4)CC3)CC2=O)c(C)c1 [Compound A109] | 5 (5=80-100%) | 5 (5=80-100%) | 5 (5=80-100%) | 5 (5=80-100%) | 5 (5=80-100%) | 5 (5=80-100%) | 5 (5=80-100%) | 5 (5=80-100%)
4 | CC#Cc1cc(C)c(C2C(=O)CC3(CCN(C(=O)c4nccn4C)CC3)CC2=O)c(C)c1 [Compound A112] | 5 (5=80-100%) | 5 (5=80-100%) | 5 (5=80-100%) | 5 (5=80-100%) | 5 (5=80-100%) | 5 (5=80-100%) | 5 (5=80-100%) | 5 (5=80-100%)
5 | CC#Cc1cc(C)c(C2C(=O)CC3(CCN(C(=O)c4cnc(C)cn4)CC3)CC2=O)c(C)c1 [Compound A127] | 5 (5=80-100%) | 5 (5=80-100%) | 5 (5=80-100%) | 5 (5=80-100%) | 5 (5=80-100%) | 5 (5=80-100%) | 5 (5=80-100%) | 5 (5=80-100%)
6 | CC#Cc1cc(C)c(C2C(=O)CC3(CCN(C(=O)c4ccc(OC)cn4)CC3)CC2=O)c(C)c1 [Compound A121] | 4 (4=60-79%) | 5 (5=80-100%) | 5 (5=80-100%) | 5 (5=80-100%) | 5 (5=80-100%) | 5 (5=80-100%) | 5 (5=80-100%) | 5 (5=80-100%)
7 | CC#Cc1cc(C)c(C2C(=O)CC3(CCN(C(=O)c4nnc(C)o4)CC3)CC2=O)c(C)c1 [Compound A119] | 5 (5=80-100%) | 5 (5=80-100%) | 5 (5=80-100%) | 5 (5=80-100%) | 5 (5=80-100%) | 5 (5=80-100%) | 5 (5=80-100%) | 5 (5=80-100%)
8 | CC#Cc1cc(C)c(C2C(=O)CC3(CCN(C(=O)NC(=O)C4CC4)CC3)CC2=O)c(C)c1 [Compound A141] | 4 (4=60-79%) | 5 (5=80-100%) | 5 (5=80-100%) | 5 (5=80-100%) | 5 (5=80-100%) | 5 (5=80-100%) | 5 (5=80-100%) | 5 (5=80-100%)
9 | CC#Cc1cc(C)c(C2C(=O)CC3(CCN(C4=NOC(C)(C)C4)CC3)CC2=O)c(C)c1 [Compound A143] | 4 (4=60-79%) | 5 (5=80-100%) | 5 (5=80-100%) | 5 (5=80-100%) | 5 (5=80-100%) | 5 (5=80-100%) | 5 (5=80-100%) | 5 (5=80-100%)
10 | CC#Cc1cc(C)c(C2C(=O)CC3(CCN(C(=O)NC(=O)CC)CC3)CC2=O)c(C)c1 [Compound A108] | 5 (5=80-100%) | 5 (5=80-100%) | 5 (5=80-100%) | 5 (5=80-100%) | 5 (5=80-100%) | 5 (5=80-100%) | 5 (5=80-100%) | 5 (5=80-100%)
11 | CC#Cc1cc(C)c(C2C(=O)CC3(CCN(C(=O)C4COCCO4)CC3)CC2=O)c(C)c1 (centres unmarked) [Compound A133] | 5 (5=80-100%) | 5 (5=80-100%) | 5 (5=80-100%) | 5 (5=80-100%) | 5 (5=80-100%) | 5 (5=80-100%) | 5 (5=80-100%) | 5 (5=80-100%)
12 | CC#Cc1cc(C)c(C2=C(OC(=O)OC)CC3(CCN(C(=O)Cc4ccccn4)CC3)CC2=O)c(C)c1 [Compound P47] | 5 (5=80-100%) | 5 (5=80-100%) | 5 (5=80-100%) | 5 (5=80-100%) | 5 (5=80-100%) | 5 (5=80-100%) | 5 (5=80-100%) | 5 (5=80-100%)
13 | CC#Cc1cc(C)c(C2C(=O)CC3(CCN(C(=O)c4ccnc(F)c4)CC3)CC2=O)c(C)c1 [Compound A125] | 5 (5=80-100%) | 5 (5=80-100%) | 5 (5=80-100%) | 5 (5=80-100%) | 5 (5=80-100%) | 5 (5=80-100%) | 5 (5=80-100%) | 5 (5=80-100%)
